Results taken from patent publication US12569453B2, “Use of tapinarof for the treatment of atopic dermatitis” (Dermavant Sciences GmbH, priority 2018, dated 2026).
Marks after values point to notes of the source that are not given here.

Tested on: adult subjects with psoriasis
Experiment: Phase II/2b clinical study in plaque psoriasis: efficacy and patient-reported outcomes
Format: in vivo, human
Details: for PGA response rate (primary endpoint): interim analysis; for subjects with ≥4 improvement in pruritus NRS score from baseline: baseline NRS score ≥4; for PGA response rate (PGA 0 or 1 and ≥2-grade improvement): mITT OC; for PGA treatment success: Week 16 (4 weeks after end of treatment)
Excerpt: This was a multicenter (United States, Canada, and Japan), randomized, double-blind (Sponsor-unblind), vehicle-controlled, 6-arm, parallel-group, dose-finding study in adult subjects with psoriasis. Certain study personnel at each site were unblinded to dose-frequency.
The study consisted of 3 periods: up to 4 weeks Screening, 12 weeks double-blind treatment, and 4 weeks post-treatment follow-up. Study visits occurred at Screening; Baseline; weeks 1, 2, 4, 8, and 12 during the treatment period; and 2 and 4 weeks after the last application of study treatment (i.e., at weeks 14 and 16). Additional visits could occur, as needed, for early withdrawals or to follow-up on any skin reactions or ongoing AEs. A subject's total duration of study participation was approximately 16 to 20 weeks.
Two concentrations of Tapinarof cream (0.5% and 1%) and a vehicle control were evaluated following application to all psoriasis lesions (except on the scalp) once (QD) or twice daily (BID) for 12 weeks. There were no planned dose adjustments during the study.
Efficacy was assessed by using a 5-point static Physician Global Assessment (PGA) (0-4 scale), the Psoriasis Area and Severity Index (PASI), % BSA involvement, target lesion assessments (erythema, scaling, and plaque thickness), and subject-reported itch/pruritus severity using a numeric rating scale (NRS) (from the Psoriasis Symptom Diary [PSD]). Additional subject-reported outcomes included the daily PSD (which also contained severity and bother items for 3 additional symptoms). Investigator global impression of change item (assessing change in severity of psoriasis symptoms) and 2 subject global impressions of change items (assessing change in severity of psoriasis symptoms and change in severity of itch/pruritus) were also assessed.
Physician Global Assessment: The PGA is a clinical tool for assessing the current state/severity of a subject's psoriasis. It is a static 5-point morphological assessment of overall disease severity, as determined by the investigator, using the clinical characteristics of erythema, plaque thickness, and scaling as guidelines. At each specified time point, the PGA is made without reference to previous scores. Variations of the PGA are frequently used in clinical studies because it is a simple assessment that is more similar to the assessments actually used in clinical practice. Scoring system ranges from 0 (=Clear) to 4 (=Severe).
Psoriasis Area and Severity Index: The PASI scoring system is a widely-used standard clinical tool for assessing the severity of psoriasis that takes into account the overall severity of erythema (redness), thickness (induration), and scale, as well as the extent of BSA affected with psoriasis. The 3 clinical signs are each graded on a 5 point scale (0 to 4) and the % BSA affected is scored on a 7-point scale (0 to 6) for each of the 4 specified body regions (head, upper extremities, trunk, and lower extremities). The individual scores are multiplied by a weighted factor for each body region; the sum of these scores gives the overall PASI score. Higher scores indicate more severe disease. PASI is a static assessment made without reference to previous scores.
Body Surface Area: The extent of BSA affected by psoriasis is a general indicator of disease severity and was measured throughout the study. The extent of BSA to which study treatment was applied was also recorded. For the purpose of approximate clinical estimation, the total palmar surface of the palm plus 5 digits was assumed to be approximately equivalent to 1% BSA.
Target Lesion Grading: A single target lesion was selected at Baseline to assess efficacy in treating a discrete area rather than an overall average of all areas. For that lesion, the severity of erythema, scaling, and plaque thickness was assessed by the investigator on a 5-point scale ranging from “0=none” to “4=severe”. […]

Structure (SMILES): CC(C)c1c(O)cc(/C=C/c2ccccc2)cc1O [Tapinarof, 3,5-Dihydroxy-4-isopropyl-trans-stilbene]
- difference in PGA response rate, active minus vehicle (0.5% BID-vehicle BID, Week 12): 35.6%
- PGA response at Week 12 (0.5% BID, 1 to <10% BSA affected at baseline): 33%
- Target lesion Erythema, percent change from Baseline (Mean) (0.5% BID, Early WD): −25.00%
- Target lesion Plaque thickness, percent change from Baseline (Mean) (0.5% BID, Early WD): −33.33%
- Target lesion Scaling, percent change from Baseline (Mean) (0.5% BID, Early WD): −41.67%
- PGA response at Week 12 (0.5% BID, Fitzpatrick skin type I/II): 50%
- PGA response at Week 12 (0.5% BID, Fitzpatrick skin type III/IV): 60%
- PGA response at Week 12 (0.5% BID, Fitzpatrick skin type V/VI): 25%
- Target lesion Erythema, percent change from Baseline (Mean) (0.5% BID, Follow-up Week 14): −68.25%
- Target lesion Plaque thickness, percent change from Baseline (Mean) (0.5% BID, Follow-up Week 14): −67.86%
- Target lesion Scaling, percent change from Baseline (Mean) (0.5% BID, Follow-up Week 14): −68.65%
- Target lesion Erythema, percent change from Baseline (Mean) (0.5% BID, Follow-up/Week 16): −59.47%
- Target lesion Plaque thickness, percent change from Baseline (Mean) (0.5% BID, Follow-up/Week 16): −54.92%
- Target lesion Scaling, percent change from Baseline (Mean) (0.5% BID, Follow-up/Week 16): −57.95%
- Target lesion Erythema, percent change from Baseline (Mean) (0.5% BID, Week 1): −9.95%
- Target lesion Plaque thickness, percent change from Baseline (Mean) (0.5% BID, Week 1): −14.52%
- Target lesion Scaling, percent change from Baseline (Mean) (0.5% BID, Week 1): −12.37%
- Target lesion Erythema, percent change from Baseline (Mean) (0.5% BID, Week 2): −23.61%
- Target lesion Plaque thickness, percent change from Baseline (Mean) (0.5% BID, Week 2): −33.89%
- Target lesion Scaling, percent change from Baseline (Mean) (0.5% BID, Week 2): −35.00%
- Target lesion Erythema, percent change from Baseline (Mean) (0.5% BID, Week 4): −45.54%
- Target lesion Plaque thickness, percent change from Baseline (Mean) (0.5% BID, Week 4): −44.64%
- Target lesion Scaling, percent change from Baseline (Mean) (0.5% BID, Week 4): −50.89%
- Target lesion Erythema, percent change from Baseline (Mean) (0.5% BID, Week 8): −62.33%
- Target lesion Plaque thickness, percent change from Baseline (Mean) (0.5% BID, Week 8): −62.67%
- Target lesion Scaling, percent change from Baseline (Mean) (0.5% BID, Week 8): −60.00%
- PGA response rate (primary endpoint) (0.5% BID, Week 8): 36%
- Mean change in nine items of the PSD from baseline (0.5% BID, Week 12): −4.2^‡
- Mean change in total target lesion grading scores from baseline (0.5% BID, Week 12): −6.2*
- Target lesion Erythema, percent change from Baseline (Mean) (0.5% BID, Week 12): −76.52%
- Target lesion Plaque thickness, percent change from Baseline (Mean) (0.5% BID, Week 12): −71.59%
- Target lesion Scaling, percent change from Baseline (Mean) (0.5% BID, Week 12): −78.03%
- subjects with ≥4 improvement in pruritus NRS score from baseline (0.5% BID, Week 12): 56%
- PGA response rate (PGA 0 or 1 and ≥2-grade improvement) (0.5% BID, Week 12): 46%
- PASI50 response rate (0.5% BID, Week 16): 62%
- PASI75 response rate (0.5% BID, Week 16): 46%
- PASI90 response rate (0.5% BID, Week 16): 27%
- PGA treatment success (0.5% BID): 35%
- PGA response at Week 12 (0.5% BID, psoriasis duration 5 years to <10 years): 20%
- PGA response at Week 12 (0.5% BID, psoriasis duration 6 months to <5 years): 50%
- PGA response at Week 12 (0.5% BID, psoriasis duration ≥10 years): 53%
- PGA response at Week 12 (0.5% BID, ≥10% BSA affected at baseline): 75%
- difference in PGA response rate, active minus vehicle (0.5% QD-vehicle QD, Week 12): 30.7%
- PGA response at Week 12 (0.5% QD, 1 to <10% BSA affected at baseline): 35%
- Target lesion Erythema, percent change from Baseline (Mean) (0.5% QD, Early WD): 8.33%
- Target lesion Plaque thickness, percent change from Baseline (Mean) (0.5% QD, Early WD): 0.00%
- Target lesion Scaling, percent change from Baseline (Mean) (0.5% QD, Early WD): −16.67%
- PGA response at Week 12 (0.5% QD, Fitzpatrick skin type I/II): 25%
- PGA response at Week 12 (0.5% QD, Fitzpatrick skin type III/IV): 44%
- PGA response at Week 12 (0.5% QD, Fitzpatrick skin type V/VI): 25%
- Target lesion Erythema, percent change from Baseline (Mean) (0.5% QD, Follow-up Week 14): −63.77%
- Target lesion Plaque thickness, percent change from Baseline (Mean) (0.5% QD, Follow-up Week 14): −67.39%
- Target lesion Scaling, percent change from Baseline (Mean) (0.5% QD, Follow-up Week 14): −67.75%
- Target lesion Erythema, percent change from Baseline (Mean) (0.5% QD, Follow-up/Week 16): −73.96%
- Target lesion Plaque thickness, percent change from Baseline (Mean) (0.5% QD, Follow-up/Week 16): −71.53%
- Target lesion Scaling, percent change from Baseline (Mean) (0.5% QD, Follow-up/Week 16): −69.79%
- Target lesion Erythema, percent change from Baseline (Mean) (0.5% QD, Week 1): −14.25%
- Target lesion Plaque thickness, percent change from Baseline (Mean) (0.5% QD, Week 1): −10.22%
- Target lesion Scaling, percent change from Baseline (Mean) (0.5% QD, Week 1): −20.97%
- Target lesion Erythema, percent change from Baseline (Mean) (0.5% QD, Week 2): −28.13%
- Target lesion Plaque thickness, percent change from Baseline (Mean) (0.5% QD, Week 2): −26.04%
- Target lesion Scaling, percent change from Baseline (Mean) (0.5% QD, Week 2): −34.38%
- Target lesion Erythema, percent change from Baseline (Mean) (0.5% QD, Week 4): −35.48%
- Target lesion Plaque thickness, percent change from Baseline (Mean) (0.5% QD, Week 4): −42.47%
- Target lesion Scaling, percent change from Baseline (Mean) (0.5% QD, Week 4): −51.34%
- Target lesion Erythema, percent change from Baseline (Mean) (0.5% QD, Week 8): −50.81%
- Target lesion Plaque thickness, percent change from Baseline (Mean) (0.5% QD, Week 8): −60.75%
- Target lesion Scaling, percent change from Baseline (Mean) (0.5% QD, Week 8): −68.01%
- PGA response rate (primary endpoint) (0.5% QD, Week 8): 46%
- Mean change in nine items of the PSD from baseline (0.5% QD, Week 12): −4.1^†
- Mean change in total target lesion grading scores from baseline (0.5% QD, Week 12): −5.8*
- PASI90 response rate (0.5% QD, Week 12): 18%
- Target lesion Erythema, percent change from Baseline (Mean) (0.5% QD, Week 12): −65.06%
- Target lesion Plaque thickness, percent change from Baseline (Mean) (0.5% QD, Week 12): −67.31%
- Target lesion Scaling, percent change from Baseline (Mean) (0.5% QD, Week 12): −72.76%
- subjects with ≥4 improvement in pruritus NRS score from baseline (0.5% QD, Week 12): 57%
- PGA response rate (PGA 0 or 1 and ≥2-grade improvement) (0.5% QD, Week 12): 36%
- PASI50 response rate (0.5% QD, Week 16): 71%
- PASI75 response rate (0.5% QD, Week 16): 54%
- PASI90 response rate (0.5% QD, Week 16): 18%
- PGA treatment success (0.5% QD): 36%
- PGA response at Week 12 (0.5% QD, psoriasis duration 5 years to <10 years): 50%
- PGA response at Week 12 (0.5% QD, psoriasis duration 6 months to <5 years): 29%
- PGA response at Week 12 (0.5% QD, psoriasis duration ≥10 years): 33%
- PGA response at Week 12 (0.5% QD, ≥10% BSA affected at baseline): 38%
- subjects rating overall psoriasis symptoms very improved or moderately improved (0.5% groups, Week 12): 77-80%
- subjects rating pruritus symptoms very improved or moderately improved (0.5% groups, Week 12): 73-77%
- PASI75 responders who maintained response from Week 12 to Week 16 (1% BID): 80%
- PGA responders who maintained response from Week 12 to Week 16 (1% BID): 67%
- difference in PGA response rate, active minus vehicle (1% BID-vehicle BID, Week 12): 54.7%
- PGA response at Week 12 (1% BID, 1 to <10% BSA affected at baseline): 67%
